Measurements reported in patent publication US20170016884A1, “A NOVEL, HIGH-THROUGHPUT, NANOTOPOGRAPHIC PLATFORM FOR SCREENING CELL MIGRATORY BEHAVIOR” (THE JOHNS HOPKINS UNIVERSITY, priority 2014, published 2017).

Tests used:
[1] = tested on: primary human GB cells; assay: cell migration on multi-well nanopatterned platform (time-lapse microscopy); type: cell-based; conditions: for fraction of cells maintaining slower speeds (≦15 μm/hr): PDGF-exposed
Experimental: (§1) Cells were cultured in the multi-well, nanopatterned device for approximately 48 hours in the course of each experiment. Prior to plating cells, nanoridged substrata were coated with poly-D-lysine (10 μg ml-1) for 15 minutes and mouse laminin (from 10 to 140 μg ml-1) for 1 hour. These topographically patterned cell substrata, caused cells to align with and move along the direction of the nanoridges. Both prior to, and during experiments cells were maintained at 37° C. and 5% CO2 in Dulbecco's Modified Eagle Medium: Nutrient Mixture F-12 containing 2 mM L-glutamine, with added 50 U mL-1 penicillin, […] streptomycin. Where indicated, media contained 10% fetal bovine serum (Invitrogen) or alternatively, Platelet-Derive Growth Factor-AA (PDGF-AA) (LC Laboratories) at specified concentrations.
Cell migration was observed using time-lapse microscopy (Movies S1-S3). To enable long-term observation, the multi-well, nanopatterned device was mounted onto the stage of a motorized inverted microscope (Olympus IX81) equipped with a Photometrics® Cascade® 512B II CCD camera and temperature and gas controlling environmental chamber. Phase contrast cell images were automatically recorded under 10× objective (NA=0.30) using the SlideBook™ 4.1 Software (Intelligent Imaging Innovations, Denver, Colo.) for 10-15 hours at 10 or 20 minute intervals.
Because cell-cell contact is known to affect the extent of cell spreading and migration, cells were plated at low density (˜4×10^4 cells mL -1) to allow isolated movements. A custom-made MATLAB® script was used allow manual tracking and measurement of cells frame by frame. Analysis was stopped in the event of cell death, division, collision with non-cellular debris, or movement out of the field of view. Area and spindle shape factor of individual cells was measured in each frame, and averaged over the entire duration of the experiment. The spindle shape factor was defined as the ratio of the maximum cell length (long axis) to the maximum cell width in the direction perpendicular to long axis, regardless of the orientation with respect to nanoridge pattern. Averages of cell populations were calculated from at least 60 cells.
Cells movements were tracked by centroid position or by the approximate center of the cell body. Individual cell trajectories were used to calculate the mean squared displacement (MSD) at each interval. Instantaneous speeds of individual cells were calculated from the MSD and the duration of the image acquisition time interval. Average speeds of individual cells were calculated from the total distanced moved throughout the entire cell trajectory and the total time the cell was tracked. Persistence was obtained as previously described, by calculating the ratio of the shortest distance between starting point and end point, divided by the total distanced moved. Alignment to the nanoridge pattern was calculated by dividing the distance moved parallel to the ridges, by the distance moved perpendicular to the ridges. Averages of cell populations were calculated from at least 60 cells.

[2] = tested on: primary human GB cells; assay: cell migration on flat (smooth) substrata; type: cell-based
Experimental: as §1, with “Prior to plating cells, nanoridged substrata were coated with poly-D-lysine (10 μg ml-1) for 15 minutes and mouse laminin (from 10 to 140 μg ml-1) for 1 hour.” left out
Cell migration was observed using time-lapse microscopy (Movies S1-S3). […] Phase contrast cell images were automatically recorded under 10× objective (NA=0.30) using the SlideBook™ 4.1 Software (Intelligent Imaging Innovations, Denver, Colo.) for 10-15 hours at 10 or 20 minute intervals.
Because cell-cell contact is known to affect the extent of cell spreading and migration, cells were plated at low density (˜4×10^4 cells mL -1) to allow isolated movements. […] Area and spindle shape factor of individual cells was measured in each frame, and averaged over the entire duration of the experiment. […] Averages of cell populations were calculated from at least 60 cells. […]

[3] = tested on: Akt; assay: Akt phosphorylation via immunoblotting; type: cell-based, human; conditions: FIG. 10B
Experimental: Total cellular protein was extracted using NE-PER Nuclear and Cytoplasmic Extraction Reagents kit according to the manufacturer's instructions (Thermo Scientific) containing protease (Roche) and phosphatase inhibitor (Thermo). Protein concentration was determined using the Bradford protein quantification method (Biorad Protein Assay, Biorad). SDS-PAGE was performed with 25 μg total cellular protein per lane using 4-12% gradient Tris glycine gels. The primary antibodies used were as follows: anti PDGFR-alpha (1:200; Santa Cruz); phospho-PDGFR alpha (1:1000; Cell Signaling); Akt (1:1000; Cell Signaling);
phospho-Akt (1:1000; Cell Signaling).

[4] = tested on: human GB cells; assay: mouse intracranial tumor xenograft of human GB cells with PDGF exposure; type: in vivo
Experimental: All animal protocols were approved by the Johns Hopkins School of Medicine Animal Care and Use Committee. For intracranial xenografts, SCID immnodeficient mice received 100,000 viable cells in 1 μl of DMEM/F12 serum media without growth factors by stereotactic injection into the right striatum. Cells were cultured in DMEM/F12 serum media with EGF/FGF and PDGF-AA ligand for three weeks before injections were performed. Cell viability was determined by trypan blue dye exclusion. Mice were perfused with 4% paraformaldehyde at the indicated times and the brains were removed for histological analysis.

[5] = tested on: GB; conditions: cited from earlier work
[6] = biological target: PDGFRα (Homo sapiens, UniProt P16234); conditions: cited from earlier work
PDGFRα, sequence (P16234 24-1089): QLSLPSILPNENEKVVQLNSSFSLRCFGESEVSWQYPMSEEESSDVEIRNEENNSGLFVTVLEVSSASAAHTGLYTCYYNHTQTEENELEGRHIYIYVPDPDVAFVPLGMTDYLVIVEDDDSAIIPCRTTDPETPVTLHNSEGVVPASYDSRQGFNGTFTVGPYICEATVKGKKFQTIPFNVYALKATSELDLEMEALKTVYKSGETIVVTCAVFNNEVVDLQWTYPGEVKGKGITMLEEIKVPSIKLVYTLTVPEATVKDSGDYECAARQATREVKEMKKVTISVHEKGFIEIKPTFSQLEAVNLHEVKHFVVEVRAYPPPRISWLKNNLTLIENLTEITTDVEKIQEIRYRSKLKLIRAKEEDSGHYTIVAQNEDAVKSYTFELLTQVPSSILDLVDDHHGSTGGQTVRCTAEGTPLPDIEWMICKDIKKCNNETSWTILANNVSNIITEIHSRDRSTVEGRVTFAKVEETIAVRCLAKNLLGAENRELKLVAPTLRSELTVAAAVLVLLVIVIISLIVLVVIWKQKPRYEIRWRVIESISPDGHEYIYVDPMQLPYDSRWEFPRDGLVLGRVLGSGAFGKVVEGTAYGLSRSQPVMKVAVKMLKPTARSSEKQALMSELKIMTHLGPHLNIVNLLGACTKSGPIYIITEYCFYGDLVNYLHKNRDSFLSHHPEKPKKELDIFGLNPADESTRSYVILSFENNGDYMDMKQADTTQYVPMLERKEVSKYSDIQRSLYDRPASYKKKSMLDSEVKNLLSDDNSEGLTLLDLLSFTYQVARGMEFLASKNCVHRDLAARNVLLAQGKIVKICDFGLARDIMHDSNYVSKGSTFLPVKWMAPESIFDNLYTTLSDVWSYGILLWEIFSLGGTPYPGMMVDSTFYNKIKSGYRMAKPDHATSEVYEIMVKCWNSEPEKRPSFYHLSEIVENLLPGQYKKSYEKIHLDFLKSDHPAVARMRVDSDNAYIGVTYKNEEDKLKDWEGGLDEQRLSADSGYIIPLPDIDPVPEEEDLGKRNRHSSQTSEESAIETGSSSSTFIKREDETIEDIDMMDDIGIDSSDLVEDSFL

Molecule: laminin: surface-immobilized ECM protein used to coat substrata
- response of speed, alignment and persistence to laminin coating concentration ([1]; GB 318 cells, nanopatterned substrata, optimum at intermediate laminin values): biphasic response
- differences in migration at varying laminin densities ([2]; GB 318 cells): did not observe statistically significant differences

Molecule: PDGF
- increase in migration speed upon PDGF stimulation vs unstimulated cells ([1]; 'responding' GB samples, PDGF 40-50 ng/mL): 15-100%
- fraction of cells maintaining slower speeds (≦15 μm/hr) ([1]; GB 318 cells): roughly 70%
- fraction of cells maintaining slower speeds (≦15 μm/hr) ([1]; GB 630 cells): ~60%
- sub-population of aggressive cells accounting for the increased average migration speed ([1]; in the presence of PDGF): approximately 20%
- maximal motility relative to control ([1]; nanopatterned system, intermediate PDGF concentrations, serum-free medium): up to 2 fold
- dose dependence of response in migration speed and persistence ([1]; nanopatterned system, seven PDGF concentrations): clear graded dose dependence
- migratory response to PDGF exposure [2]: much more limited responses
- phosphorylation (activation) of downstream effector Akt [3]: PDGFdependent
- survival of mice ([4]; GB 276 neurospheres cultured with PDGF three weeks before intracranial injection, n=4): significantly reduced survival
- tumor size, invasiveness and shape ([4]; continuous PDGF exposure of tumor xenografts via infusion pump, n=2): larger, more invasion tumors with more eccentric shapes

Molecule: Cc1ccc(NC(=O)c2ccc(CN3CCN(C)CC3)cc2)cc1Nc1nccc(-c2cccnc2)n1 [Imatinib]
- effect on PDGF-stimulated migration (speed and alignment) ([1]; 'responding' sample GB 276, PDGF-stimulated): attenuation of enhancements in speed and alignment
- GB growth [5]: inhibit GB growth in vitro and in vivo
- interaction with PDGFRα [6]: known to interact with PDGFRα
